Experimental data: patent publication US6737425B1, “N,N-substituted cyclic amine derivatives” (Eisai Co., Ltd., priority 1998, dated 2004)
Values joined by “and” are separate entries in the source; they are usually repeats but may differ in a detail not shown here. Equal entries are not always repeated.

Columns and labels:
[1] = system: rat model with local cerebral ischemia; settings: literature reports (13, 14, 15); cited from earlier work
formalin test = settings: administered into spinal cord, literature reports (1, 2); cited from earlier work
[2] = system: rat model with occlusion in the middle cerebral artery; assay: Effect (II) of reducing infarct volume in a rat model with occlusion in the middle cerebral artery (permanent occlusion); assay type: in vivo
Procedure: Effect (II) of Reducing Infarct volume in a Rat Model with Occlusion in the Middle Cerebral Artery
The typical example of the compound of the present invention (the compound in Example 1) was compared with compounds disclosed in JP 8-508037-A (WO 94/25469, U.S. Pat. No. 5,750,525), which have affinity for AMPA receptors and is effective against cellular necrosis after ischemia in anoxia and hypocalcemia.
The compound of the present invention was dissolved in physiological saline to be adjusted to a dosage of 10 or 20 mg/kg/h just before use.
The control compound was dissolved in physiological saline to be adjusted to a dosage of 3 mg/kg/h just before use.
Occlusion in the middle cerebral artery was conducted according to the method described above. However, the middle cerebral artery was permanently occluded without removing the nylon embolus.
Two hours after the middle cerebral artery was occluded, a syringe containing the medium or the sample (10 or 20 mg/kg/h) was attached to a catheter for intravenous administration, and half (0.31 ml) of the dosage to be infused for 1 hour was intravenously administered for 1 minute. Thereafter, the medium or the sample was administered continuously for 6 hours at a rate of 0.616 ml/h by the use of a syringe pump for infusion. During administration and for 2 hours after administration was finished, the temperature of the rectum was maintained in the range of 37.0 to 38.5° C. in a system for controlling body temperature. After the body temperature control was finished, the animal was returned to a cage and maintained for 1 day in a breeding room.
Two hours after the middle cerebral artery was occluded, a syringe containing the medium or the sample (3 mg/kg/h) was attached to a catheter for intravenous administration, and the medium or the sample was administered continuously for 6 hours at a rate of 0.616 ml/h by means of the syringe pump for infusion. During administration and for 2 hours after administration was finished, the temperature of the rectum was maintained in the range of 37.0 to 38.5° C. in the system for controlling body temperature. After the body temperature control was finished, the animal was returned to a cage and maintained for 1 day in a breeding room.
The middle cerebral artery was permanently occluded by the nylon embolus, and the infarct volume was measured 24 hours after the occlusion was conducted.

mice in a formalin test = assay: Antalgic effect (II) on mice in a formalin test (comparison with morphine and indomethacin); assay type: in vivo
Procedure: Antalgic Effect (II) on Mice in a Formalin Test
The typical example of the compound of the present invention (the compound in Example 1) was compared with morphine and indomethacin in the same manner as in Pharmacological Experimental Example 5 above.
20.4 mg of the compound of the present invention was weighed, and 10.2 ml of 5.28% mannitol was added thereto to prepare 2 mg/ml (20 mg/kg) solution. Then, 3.8 ml of 5.28% mannitol was added to 3.8 ml of the 2 mg/ml solution to prepare 1 mg/ml (10 mg/kg) solution. Finally, 2.5 ml of 5.28% mannitol was added to 2.5 ml of the 1 mg/ml solution to prepare 0.5 mg/ml (5 mg/kg) solution. The test compound was weighed and prepared on the day when the experiment was conducted.
b-1) Morphine 17.0 mg of morphine purchased as a reagent was weighed, and 5.67 ml physiological saline was added thereto to form 3 mg/ml (30 mg/kg) solution. Then, 2.6 ml physiological saline was added to 1.3 ml of the 3 mg/ml solution to prepare 1 mg/ml (10 mg/kg) solution. Finally, 2.1 ml physiological saline was added to 0.9 ml of the 1 mg/ml solution to prepare 0.3 mg/ml (3 mg/kg) solution. The test compound was weighed and prepared on the day when the experiment was conducted.
12.9 mg of indomethacin purchased as a reagent was weighed, and 12.9 ml of 0.5% methyl cellulose (MC) was added thereto to form 1 mg/ml (10 mg/kg) suspension. Then, 2.24 ml of 0.5% MC was added to 0.96 ml of the 1 mg/ml suspension to prepare 0.3 mg/ml (3 mg/kg) suspension. Finally, 1.6 ml of 0.5% MC was added to 0.8 ml of the 0.3 mg/ml suspension to prepare 0.1 mg/ml (1 mg/kg) suspension. The test compound was weighed and prepared on the day when the experiment was conducted.
The treatment group by the compound of the present invention consisted of 4 groups in total, that is, a control group, a 5 mg/kg compound administration group, a 10 mg/kg compound administration group, and a 20 mg/kg compound administration group, and each group consisted of 5 animals.
The control group was given 0.1 ml of 5.28% mannitol per 10 g of the body weight via the tail vein. The compound of the present invention was administered via the tail vein at each concentration (0.5 mg/ml, 1 mg/ml, and 2 mg/ml) in an volume of 0.1 ml per 10 g of the body weight into the 5 mg/kg group, 10 mg/kg group and 20 mg/kg group, respectively.
The treatment group by morphine consisted of 4 groups in total, that is, a control group, a 3 mg/kg morphine administration group, a 10 mg/kg morphine administration group, and a 30 mg/kg morphine administration group, and each group consisted of 5 animals.
The control group was orally given 0.1 ml of physiological saline per 10 g of the body weight. Morphine was orally administered at each concentration (0.3 mg/ml, 1 mg/ml, and 3 mg/ml) in a volume of 0.1 ml per 10 g of the body weight into the 3 mg/kg group, 10 mg/kg group and 30 mg/kg group, respectively.
The treatment group by indomethacin consisted of 4 groups in total, that is, a control group, a 1 mg/kg indomethacin administration group, a 3 mg/kg indomethacin administration group, and a 10 mg/kg indomethacin administration group, and each group consisted of 5 animals.
The control group was orally given 0.1 ml of 0.5% MC per 10 g of the body weight. Indomethacin was orally administered at each concentration (0.1 mg/ml, […], and 1 mg/ml) in a volume of 0.1 ml per 10 g of the body weight into the 1 mg/kg group, 3 mg/kg group and 10 mg/kg group, respectively.
5.28% mannitol was administered via the tail vein into each group given the compound of the present invention or into the control group, and the animals were placed in a transparent plastic observation cage. 5 minutes later, 20 μl of 3% formalin was subcutaneously administered into the bottom of the left hind leg of each mouse. The duration of the behavior of mouse's licking the left hind leg after administration of formalin was measured for 5 minutes and used as an indication of pain. The duration was expressed in second. […]

## CSCC[C@@H]1NC(=O)[C@H](CC(C)C)NC(=O)[C@H](CCCNC(=N)N)NC(=O)[C@H](CO)NC(=O)[C@@H]2CSSC[C@@H]3NC(=O)[C@H](CO)NC(=O)CNC(=O)[C@H]([C@@H](C)O)NC(=O)[C@H](CSSC[C@H](N)C(=O)N[C@@H](CCCCN)C(=O)NCC(=O)N[C@@H](CCCCN)C(=O)NCC(=O)N[C@@H](C)C(=O)N[C@@H](CCCCN)C(=O)N2)NC(=O)[C@H](CSSC[C@@H](C(N)=O)NC(=O)[C@H](CCCCN)NC(=O)CNC(=O)[C@H](CO)NC(=O)[C@H](CCCNC(=N)N)NC3=O)NC(=O)[C@H](CC(=O)O)NC(=O)[C@H](Cc2ccc(O)cc2)NC1=O [SNX-111]
[1]
  protective action on nerve cells: serves for protection against the liberation of glutamic acid from the cerebral cortex and against the subsequent disturbance of nerve cells
Formalin test
  antalgic action: has an antalgic action

## O=c1[nH]c2cc(C(F)(F)F)c(N3CCOCC3)cc2n(CP(=O)(O)O)c1=O [control compound, {[3,4-Dihydro-7-(4-morpholinyl)-2,3-dioxo-6-(trifluoromethyl)-1-(2H)-quinoxalinyl]methyl}phosphonic acid, reference compound]
[2]; 3 mg/kg/h i.v.
  infarct volume compared with the control group: no difference from the control group
[2]; 3 mg/kg/h i.v. (table: 3 mg/kg), from two hours after occlusion, 6 hours, 24 hours after occlusion
  Infarct volume in the cerebral cortex, Mean: 284.9±10.9 mm^3 and 284.9 mm^3

## COc1ccc2c(c1)c(CC(=O)O)c(C)n2C(=O)c1ccc(Cl)cc1 [indomethacin]
Mice in a formalin test; 1 mg/kg p.o., formalin 90 minutes later
  average left hind leg-licking time, Mean: 87.8 s
Mice in a formalin test; 3 mg/kg p.o., formalin 90 minutes later
  average left hind leg-licking time, Mean: 75.8 s
Mice in a formalin test; 10 mg/kg p.o., formalin 90 minutes later
  average left hind leg-licking time, Mean: 84.0 s
Mice in a formalin test; overall conclusion of the comparison
  antalgic effect in the formalin test: does not have any effect

## CN1CC[C@]23c4c5ccc(O)c4O[C@H]2[C@@H](O)C=C[C@H]3[C@H]1C5 [morphine]
Mice in a formalin test; 3 mg/kg p.o., formalin 30 minutes later
  average left hind leg-licking time, Mean: 68.2 s
Mice in a formalin test; 10 mg/kg p.o., formalin 30 minutes later
  average left hind leg-licking time, Mean: 58.0 s
Mice in a formalin test; 30 mg/kg p.o., formalin 30 minutes later
  average left hind leg-licking time, Mean: 29.6 s

## ω-agatoxin IVA
[1]
  protective action on nerve cells: has a protective action on nerve cells
